Laboratory results reported in patent US20100331348A1, “TROPANE DERIVATIVES USEFUL AS PESTICIDES” (SYNGENTA CROP PROTECTION, INC., priority 2007, published 2010).
Read-outs that look alike come from different tables or passages of the source.

Experiments:
[1] = tested on: Plasmopara viticola; assay: Plasmopara viticola (downy mildew of grapevine) leaf disk assay; assay type: in vivo; conditions: foliar, 168 h, preventive, seven days after inoculation, read-out: control of fungal infection, Plasmopara viticola
[2] = tested on: Pythium ultimum; assay: Pythium ultimum (Damping off) growth inhibition in potato dextrose broth; assay type: cell-based; conditions: Globisporangium ultimum, 48 hours, read-out: control of fungal infection, Pythium ultimum
[3] = tested on: Puccinia recondita f.sp. tritici; assay: Puccinia recondita f.sp. tritici (wheat brown rust) leaf disk assay; assay type: in vivo; conditions: foliar, 216 h, preventive, nine days after inoculation, read-out: control of fungal infection, Puccinia recondita f.sp. tritici
[4] = tested on: Pyricularia oryzae; assay: whole plant or invertebrate; assay type: in vivo; conditions: foliar, 96 h
[5] = tested on: Plutella xylostella; assay: Plutella xylostella (Diamond back moth) artificial diet test; conditions: 120 h, read-out: control of Plutella xylostella
[6] = tested on: Myzus persicae; assay: Myzus persicae (Green peach aphid) sunflower leaf disc test; conditions: foliar, 144 h, read-out: control of Myzus persicae
[7] = tested on: Erysiphe graminis f.sp. tritici; assay: Erysiphe graminis f.sp. tritici (wheat powdery mildew) leaf disk assay; assay type: in vivo; conditions: Blumeria graminis, foliar, 96 h, preventive, four days after inoculation, read-out: control of fungal infection, Erysiphe graminis fsp. tritici
[8] = tested on: Aedes aegypti; assay: Aedes aegypti (Yellow fever mosquito) larvae test; assay type: in vivo; conditions: 48 h
[9] = tested on: Phytophthora infestans; assay: whole plant or invertebrate; assay type: in vivo; conditions: foliar, 96 h, read-out: control of fungal infection, Phytophthora infestans
[10] = tested on: Heliothis virescens; assay: Heliothis virescens (Tobacco budworm) egg test on artificial diet; conditions: 96 h, read-out: control of Heliothis virescens
[11] = tested on: Tetranychus urticae; conditions: foliar, 192 h, read-out: control of Tetranychus urticae
[12] = tested on: Septoria tritici; assay: Septoria tritici (leaf blotch) growth inhibition in nutrient broth; assay type: cell-based; conditions: Zymoseptoria tritici, 72 hrs, read-out: control of fungal infection, Septoria tritici
[13] = read-out: control of fungal infection, Pyricularia oryzae (at least 60% list)
[14] = read-out: control of fungal infection, Pyricularia oryzae (at least 80% list)

SMILES	pest or weed control at 200 ppm [1] [%]	inhibition of growth at 200 ppm [2] [%]	pest or weed control at 200 ppm [3] [%]	pest or weed control at 200 ppm [4, 13] [%]	pest or weed control at 200 ppm [5] [%]	pest or weed control at 200 ppm [6] [%]	pest or weed control at 200 ppm [7] [%]	pest or weed control at 2 ppm [8] [%]	pest or weed control at 200 ppm [9] [%]	pest or weed control at 200 ppm [4, 14] [%]	pest or weed control at 200 ppm [10] [%]	pest or weed control at 200 ppm [11] [%]	inhibition of growth at 200 ppm [12] [%]	melting point [°C]
Fc1ccc(CON=C2CC3CCC(C2)N3c2ncnc3sccc23)c(F)c1F [Example 5.222]	≥ 80	≥ 60	≥ 80	≥ 60	≥ 80	≥ 80	≥ 80	≥ 80						
Fc1ccc(CON=C2CC3CCC(C2)N3c2ncnc3sccc23)cc1 [Example 5.166]	≥ 80		≥ 80	≥ 60	≥ 80	≥ 80	≥ 80	≥ 80	≥ 80	≥ 80				
CCc1ncnc(N2C3CCC2CC(=NOCc2ccc(Cl)cc2)C3)c1Cl [Example 5.21]			≥ 80		≥ 80	≥ 80	≥ 80	≥ 80	≥ 80	≥ 80	≥ 80			
CCc1ncnc(N2C3CCC2CC(=NOCc2ccc(C)cc2)C3)c1Cl [Example 5.7]			≥ 80		≥ 80	≥ 80	≥ 80	≥ 80	≥ 80					
CCc1ncnc(N2[C@@H]3CC[C@H]2CC(O/N=C(\C)c2cccnc2)C3)c1Cl (stereo partly shown) [Example 2.97]	≥ 80			≥ 60								≥ 80	≥ 60	
CCc1ncnc(N2C3CCC2CC(=CCOc2cc(C)nc(C)n2)C3)c1Cl [Example 3.15]			≥ 80					≥ 80		≥ 80	≥ 80		≥ 60	
CCOC(=O)C=C1CC2CCC(C1)N2c1ncnc(CC)c1Cl [Example 3.8]			≥ 80					≥ 80			≥ 80		≥ 60	
Cc1ccc(OCC=C2CC3CCC(C2)N3c2ncnc3sccc23)cn1 [Example 3.29]	≥ 80		≥ 80		≥ 80	≥ 80		≥ 80	≥ 80	≥ 80	≥ 80			
CC(C)(C)c1ccc(OC2C[C@H]3CC[C@@H](C2)N3c2ncnc3sccc23)cc1 (stereo partly shown) [Example 1.25]	≥ 80					≥ 80			≥ 80			≥ 80		
FC(F)(F)c1cccc(OC2C[C@H]3CC[C@@H](C2)N3c2ncnc3ccsc23)n1 (stereo partly shown) [Example 2.78]			≥ 80	≥ 60						≥ 80			≥ 60	109
CCc1ncnc(N2C3CCC2CC(=NOCc2ccc(F)cc2Cl)C3)c1Cl [Example 5.76]			≥ 80	≥ 60	≥ 80	≥ 80		≥ 80						
CCc1ncnc(N2[C@@H]3CC[C@H]2CC(Oc2ccc(CCC(C)=O)cc2)C3)c1Cl (stereo partly shown) [Example 1.213]			≥ 80			≥ 80	≥ 80					≥ 80		
COC(=O)CC1CC2CCC(C1)N2c1ncnc2sccc12 (stereo not shown) [Example 7.9]					≥ 80			≥ 80				≥ 80	≥ 60	
CCc1ncnc(N2C3CCC2CC(O)(CC#Cc2ccccc2)C3)c1Cl (stereo not shown) [Example 7.35]	≥ 80		≥ 80	≥ 60									≥ 60	
CCc1ncnc(N2C3CCC2CC(=NOCc2cc4c(cc2Cl)OCO4)C3)c1Cl [Example 5.114]	≥ 80		≥ 80			≥ 80	≥ 80	≥ 80						
CCc1ncnc(N2C3CCC2CC(=NOCc2c(F)ccc(F)c2F)C3)c1Cl [Example 5.82]			≥ 80	≥ 60	≥ 80	≥ 80	≥ 80	≥ 80	≥ 80					
Cc1ccc(CON=C2CC3CCC(C2)N3c2ncnc3sccc23)c(C)c1 [Example 5.190]	≥ 80		≥ 80		≥ 80	≥ 80	≥ 80	≥ 80	≥ 80					
CCc1ncnc(N2C3CCC2CC(Cc2ccccc2)C3)c1Cl (stereo not shown) [Example 7.23]			≥ 80		≥ 80			≥ 80					≥ 60	
Fc1cccc2c(N3[C@@H]4CC[C@H]3CC(Oc3ccc(C(F)(F)F)cn3)C4)ccnc12 (stereo partly shown) [Example 2.201]		≥ 60	≥ 80	≥ 60	≥ 80		≥ 80	≥ 80	≥ 80		≥ 80	≥ 80		
Cc1csc2c(N3[C@@H]4CC[C@H]3CC(Oc3cccc(C(F)(F)F)n3)C4)ncnc12 (stereo partly shown) [Example 2.82]				≥ 60			≥ 80						≥ 60	123
Cc1nc(CON=C2CC3CCC(C2)N3c2ncnc3sccc23)no1 [Example 5.245]			≥ 80		≥ 80	≥ 80	≥ 80	≥ 80		≥ 80	≥ 80			
CCc1ncnc(N2C3CCC2CC(=NOCc2ccccc2F)C3)c1Cl [Example 5.54]			≥ 80		≥ 80	≥ 80	≥ 80	≥ 80				≥ 80		
Clc1ccc(CON=C2CC3CCC(C2)N3c2ncnc3sccc23)c(Cl)c1 [Example 5.152]			≥ 80	≥ 60	≥ 80	≥ 80	≥ 80	≥ 80			≥ 80			
c1ccc(CON=C2CC3CCC(C2)N3c2ncnc3sccc23)cc1 [Example 5.138]	≥ 80	≥ 60	≥ 80	≥ 60	≥ 80		≥ 80	≥ 80	≥ 80		≥ 80	≥ 80		
CCc1ncnc(N2[C@@H]3CC[C@H]2CC(O)(COc2ccc(C)cc2)C3)c1Cl (stereo partly shown) [Example 1.159]	≥ 80		≥ 80										≥ 60	
Fc1ccc(F)c(CON=C2CC3CCC(C2)N3c2ncnc3sccc23)c1 [Example 5.218]		≥ 60	≥ 80	≥ 60	≥ 80	≥ 80	≥ 80	≥ 80		≥ 80		≥ 80		
CCCCCC(=O)C=C1CC2CCC(C1)N2c1ncnc2sccc12 [Example 3.35]	≥ 80		≥ 80	≥ 60	≥ 80			≥ 80		≥ 80			≥ 60	
CCc1ncnc(N2C3CCC2CC(=NOCc2ccc(C(F)(F)F)cc2)C3)c1Cl [Example 5.43]			≥ 80		≥ 80	≥ 80	≥ 80			≥ 80		≥ 80		
